{"source": "BindingDB's records for doi:10.1002/cbic.201402321", "about": "(The University of Texas At Austin, 2014)"}
{"molecular_target": "T1, Eukaryotic elongation factor 2 kinase (Homo sapiens, UniProt O00418)", "T1 sequence (O00418 whole entry)": "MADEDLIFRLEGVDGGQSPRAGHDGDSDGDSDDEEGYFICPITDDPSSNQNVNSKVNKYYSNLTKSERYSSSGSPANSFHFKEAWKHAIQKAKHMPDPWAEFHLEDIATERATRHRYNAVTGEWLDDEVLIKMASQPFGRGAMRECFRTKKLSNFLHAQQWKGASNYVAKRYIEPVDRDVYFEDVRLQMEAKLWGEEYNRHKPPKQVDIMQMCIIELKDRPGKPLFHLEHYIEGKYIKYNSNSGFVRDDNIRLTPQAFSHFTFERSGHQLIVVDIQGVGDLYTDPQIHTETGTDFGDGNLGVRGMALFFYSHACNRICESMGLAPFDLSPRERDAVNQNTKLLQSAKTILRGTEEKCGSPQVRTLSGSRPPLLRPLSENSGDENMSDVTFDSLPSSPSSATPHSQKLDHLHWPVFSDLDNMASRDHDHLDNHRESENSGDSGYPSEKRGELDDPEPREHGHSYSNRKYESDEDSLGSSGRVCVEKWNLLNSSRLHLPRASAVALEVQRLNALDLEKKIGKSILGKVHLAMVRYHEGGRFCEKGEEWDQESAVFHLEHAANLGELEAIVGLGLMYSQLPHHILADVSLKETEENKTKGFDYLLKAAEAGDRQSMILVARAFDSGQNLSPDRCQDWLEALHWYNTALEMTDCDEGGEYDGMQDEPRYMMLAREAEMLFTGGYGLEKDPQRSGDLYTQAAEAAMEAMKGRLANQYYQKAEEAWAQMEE", "assay": "Kinase assay", "procedure": "WT eEF-2K (2 nM) was preincubated with various concentrations of inhibitors (0-1000 uM) in assay buffer containing CaCl2 (150 uM), calmodulin (1 uM), triton X-100 (0.01%), and peptide substrate (50 uM) for 60 min. The reactions were started by addition of [gamma-P32]-ATP (100 uM, specific activity = 1000 cpm/pmol).", "units": {"IC50": "µM"}}
{"smiles": "Cc1ccccc1C1C(C#N)C(=O)NC(=O)C1C#N", "note": "(stereo unspecified) [4‐(2‐methylphenyl)‐2,6‐dioxopiperidine‐3,5‐ dicarbonitrile (1)]", "IC50": 33}
{"smiles": "COc1cccc(C2C(C#N)C(=O)NC(=O)C2C#N)c1", "note": "(stereo unspecified) [4-(3-methoxyphenyl)-2,6-dioxo-3,5-piperidinedicarbonitrile (MDP)]", "IC50": 25}
{"smiles": "N#CC1C(=O)NC(=O)C(C#N)C1c1cccc(O)c1", "note": "(stereo unspecified) [4‐(3‐hydroxyphenyl)‐2,6‐dioxopiperidine‐3,5‐ dicarbonitrile (4)]", "IC50": 66}
{"smiles": "N#CC1C(=O)NC(=O)C(C#N)C1c1ccc(Cl)c(Cl)c1", "note": "(stereo unspecified) [4-(3,4-dichlorophenyl)-2,6-dioxopiperidine-3,5-dicarbonitrile (2)]", "IC50": 30}
{"smiles": "N#CC1C(=O)NC(=O)C(C#N)C1c1c(Cl)cccc1Cl", "note": "(stereo unspecified) [4‐(2,6‐dichlorophenyl)‐2,6‐dioxopiperidine‐3,5‐ dicarbonitrile (5)]", "IC50": 57}
{"smiles": "Cc1ccc(C2C(C#N)C(=O)NC(=O)C2C#N)cc1", "note": "(stereo unspecified) [4‐(4‐methylphenyl)‐2,6‐dioxopiperidine‐3,5‐ dicarbonitrile (3)]", "IC50": 46}
